# Laboratory results published in patent publication US7781421B2, “Neuroactive 13, 24-cyclo-18, 21-dinorcholanes and structurally related pentacyclic steriods” (Washington University, priority 2003, dated 2010).
# Assays:
# [1] = biological target: GABAA receptor ([35S]-TBPS binding site, rat brain cortical membranes); assay: Displacement of [35S]-TBPS binding, rat brain cortical membranes; settings: 5 μM GABA, 2 nM [35S]-TBPS; ± standard error of the means
# Summary of the method: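 Rat cortical P2 membranes (0.5 mg/mL protein) incubated 2 h at room temperature with 2 nM [35S]-TBPS, 5 μM GABA and steroid (1 nM–10 μM) in 200 mM NaCl/50 mM potassium phosphate, pH 7.4. Filter-bound radioactivity counted; IC50 from Hill equation fit, triplicate points.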
# [2] = biological target: T1, rat α1β2γ2 GABAA Receptor (Rattus norvegicus, UniProt P18508+P62813+P63138, INS375LLRMFSFK); assay: Xenopus oocyte two-electrode voltage-clamp electrophysiology; format: cell-based; settings: for Oocyte electrophysiology, ratio of currents in presence/absence of compound, 0.1 μM: 0.1 μM compound co-applied with 2 μM GABA; for Oocyte electrophysiology, ratio of currents in presence/absence of compound, 0.1 μM / Oocyte electrophysiology, ratio of currents in presence/absence of compound, 1 μM / Oocyte electrophysiology, ratio of currents in presence/absence of compound, 10 μM: −70 mV; for Oocyte electrophysiology, ratio of currents in presence/absence of compound, 1 μM: 1 μM compound co-applied with 2 μM GABA; for Oocyte electrophysiology, ratio of currents in presence/absence of compound, 10 μM: 10 μM compound co-applied with 2 μM GABA; for Gating (10 μM), ratio of compound only current/2 μM GABA current: direct current gated by 10 μM compound in the absence of GABA
# T1 construct: from linearized pBluescript vectors containing receptor coding regions; expressed in transfected cells; host or cells: Xenopus laevis oocytes injected with in vitro transcribed capped mRNA
# Summary of the method: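 Oocytes injected with rat α1, β2, γ2L mRNA, voltage-clamped at −70 mV 2-5 days later in ND96. Compounds co-applied with 2 μM GABA for 20 s; peak current ratio with/without compound, n≥4 oocytes. (G): current from 10 μM compound alone, as ratio to 2 μM GABA current.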
# Xenopus laevis tadpoles = assay: Tadpole loss of righting (LRR) and swimming (LSR) reflexes; format: in vivo; settings: 3 h equilibration at room temperature; for EC50: Xenopus laevis, 3 h, read-out: LSR EC50 (loss of swimming response)
# Summary of the method: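 Groups of 10 early prelimb-bud Xenopus laevis tadpoles were held for 3 h at room temperature in oxygenated Ringer's containing compound (DMSO ≤0.1%). Loss of righting was scored as failure to right within 5 sec after flipping, and loss of swimming as failure to swim when touched. EC50 came from a Hill equation fit.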
# T1 sequence (P62813 28-455, stated change not applied): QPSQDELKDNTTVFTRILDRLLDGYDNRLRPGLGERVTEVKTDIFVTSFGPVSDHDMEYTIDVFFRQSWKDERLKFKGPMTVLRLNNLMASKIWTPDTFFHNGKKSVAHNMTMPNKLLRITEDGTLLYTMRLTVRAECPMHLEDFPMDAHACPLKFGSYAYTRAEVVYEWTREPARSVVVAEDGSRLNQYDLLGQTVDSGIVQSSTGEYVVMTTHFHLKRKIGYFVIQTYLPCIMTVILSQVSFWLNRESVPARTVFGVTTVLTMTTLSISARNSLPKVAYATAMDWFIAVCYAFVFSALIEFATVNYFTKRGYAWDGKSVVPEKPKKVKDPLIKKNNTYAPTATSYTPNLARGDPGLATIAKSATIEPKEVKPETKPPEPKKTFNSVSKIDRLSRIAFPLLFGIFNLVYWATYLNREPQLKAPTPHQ
# T1 sequence (P63138 26-474, stated change not applied): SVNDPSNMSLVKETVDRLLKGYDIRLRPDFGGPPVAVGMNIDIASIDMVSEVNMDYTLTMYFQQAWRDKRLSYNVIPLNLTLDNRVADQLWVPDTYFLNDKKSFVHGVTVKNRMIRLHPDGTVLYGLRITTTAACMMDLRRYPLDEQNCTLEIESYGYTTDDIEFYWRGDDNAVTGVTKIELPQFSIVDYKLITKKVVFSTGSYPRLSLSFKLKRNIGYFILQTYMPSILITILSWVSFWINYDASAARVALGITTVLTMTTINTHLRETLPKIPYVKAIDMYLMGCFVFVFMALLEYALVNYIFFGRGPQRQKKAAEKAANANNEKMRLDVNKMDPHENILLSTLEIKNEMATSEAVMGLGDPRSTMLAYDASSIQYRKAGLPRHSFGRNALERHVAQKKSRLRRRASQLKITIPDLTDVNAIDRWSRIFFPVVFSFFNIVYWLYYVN
# T1 sequence (P18508 with tags, fused parts or gaps INS375LLRMFSFK): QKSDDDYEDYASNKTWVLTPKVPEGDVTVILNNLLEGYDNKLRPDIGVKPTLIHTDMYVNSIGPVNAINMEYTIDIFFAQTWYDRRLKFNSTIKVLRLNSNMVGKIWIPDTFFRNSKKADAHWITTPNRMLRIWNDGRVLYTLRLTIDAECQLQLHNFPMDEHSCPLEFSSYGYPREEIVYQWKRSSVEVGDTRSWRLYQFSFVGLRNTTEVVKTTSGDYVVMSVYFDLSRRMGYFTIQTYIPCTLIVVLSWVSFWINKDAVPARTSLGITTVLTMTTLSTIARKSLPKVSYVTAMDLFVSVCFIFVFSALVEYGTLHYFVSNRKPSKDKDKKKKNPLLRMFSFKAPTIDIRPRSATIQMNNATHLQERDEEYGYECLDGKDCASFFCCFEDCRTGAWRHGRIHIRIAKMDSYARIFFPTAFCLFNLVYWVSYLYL
smiles,measurement,setting,value
"C[C@]12CC[C@@H](O)C[C@@H]1CCC1C3CC[C@@H]4[C@@H]5O[C@@H]5CC[C@]34CCC12 (stereo partly drawn) [Compound 72, (3α,5α,20S,22R)-20,22-epoxy-13,24-cyclo-18,21-dinorcholan-3l]",IC50,[1],323 ± 25 nM
same,"Oocyte electrophysiology, ratio of currents in presence/absence of compound, 0.1 μM",[2],0.90 ± 0.15
same,"Oocyte electrophysiology, ratio of currents in presence/absence of compound, 1 μM",[2],2.20 ± 0.25
same,"Oocyte electrophysiology, ratio of currents in presence/absence of compound, 10 μM",[2],6.39 ± 1.33
same,"Gating (10 μM), ratio of compound only current/2 μM GABA current",[2],−0.01 ± 0.04
same,LRR ED50 (loss of righting response),Xenopus laevis tadpoles,19300 ± 30800 nM
same,LSR EC50 (loss of swimming response),Xenopus laevis tadpoles,None @ 10
same,melting point,,203.5 to 205 °C
"C[C@]12CC[C@@H](O)C[C@@H]1CCC1C3CC[C@@H]4[C@@]5(CCC[C@]34CCC12)CO5 (stereo partly drawn) [Compound 73, (3α,5α,20S)-20,21-Epoxy-13,24-cyclo-18-norcholan-3-ol]",IC50,[1],1290 nM
same,"Oocyte electrophysiology, ratio of currents in presence/absence of compound, 0.1 μM",[2],0.88 ± 0.05
same,"Oocyte electrophysiology, ratio of currents in presence/absence of compound, 1 μM",[2],2.54 ± 0.40
same,"Oocyte electrophysiology, ratio of currents in presence/absence of compound, 10 μM",[2],4.84 ± 1.05
same,"Gating (10 μM), ratio of compound only current/2 μM GABA current",[2],−0.02 ± 0.04
same,LRR ED50 (loss of righting response),Xenopus laevis tadpoles,4000 ± 1080 nM
same,LSR EC50 (loss of swimming response),Xenopus laevis tadpoles,None @ 10
same,melting point,,186 to 192 °C (dec.)
"C[C@]12CC[C@@H](O)C[C@@H]1CCC1C3CC[C@@H]4[C@]5(CCC[C@]34CCC12)CO5 (stereo partly drawn) [Compound 74, (3α,5α,20R)-20,21-Epoxy-13,24-cyclo-18-norcholan-3-ol]",IC50,[1],64 ± 9 nM
same,"Oocyte electrophysiology, ratio of currents in presence/absence of compound, 0.1 μM",[2],1.61 ± 0.18
same,"Oocyte electrophysiology, ratio of currents in presence/absence of compound, 1 μM",[2],5.46 ± 1.21
same,"Oocyte electrophysiology, ratio of currents in presence/absence of compound, 10 μM",[2],4.53 ± 0.75
same,"Gating (10 μM), ratio of compound only current/2 μM GABA current",[2],−0.01 ± 0.01
same,LRR ED50 (loss of righting response),Xenopus laevis tadpoles,>10000 nM
same,LSR EC50 (loss of swimming response),Xenopus laevis tadpoles,None @ 10
same,melting point,,206 to 211 °C (dec.)
"CC(=O)C1CCCC23CCC4C(CCC5CC(O)CCC54C)C2CCC13 [Compound 79, (3α,5α,20S)-1-[3-Hydroxy-13,24-cyclo-18,21-dinorcholan-20-yl]ethanone]",IC50,[1],93 ± 9 nM
same,"Oocyte electrophysiology, ratio of currents in presence/absence of compound, 0.1 μM",[2],1.00 ± 0.08
same,"Oocyte electrophysiology, ratio of currents in presence/absence of compound, 1 μM",[2],1.13 ± 0.15
same,"Oocyte electrophysiology, ratio of currents in presence/absence of compound, 10 μM",[2],1.70 ± 0.12
same,"Gating (10 μM), ratio of compound only current/2 μM GABA current",[2],−0.06 ± 0.04
same,LRR ED50 (loss of righting response),Xenopus laevis tadpoles,None @ 10
same,LSR EC50 (loss of swimming response),Xenopus laevis tadpoles,None @ 10
same,melting point,,187 to 189 °C
"CC(=O)C1CCCC23CCC4C(CCC5CC(O)CCC54C)C2CCC13 [Compound 80, (3α,5α,20R)-1-[3-Hydroxy-13,24-cyclo-18,21-dinorcholan-20-yl]ethanone]",IC50,[1],2060 nM
same,"Oocyte electrophysiology, ratio of currents in presence/absence of compound, 0.1 μM",[2],0.85 ± 0.02
same,"Oocyte electrophysiology, ratio of currents in presence/absence of compound, 1 μM",[2],0.77 ± 0.03
same,"Oocyte electrophysiology, ratio of currents in presence/absence of compound, 10 μM",[2],0.93 ± 0.07
same,"Gating (10 μM), ratio of compound only current/2 μM GABA current",[2],0.01 ± 0.01
same,LRR ED50 (loss of righting response),Xenopus laevis tadpoles,None @ 10
same,LSR EC50 (loss of swimming response),Xenopus laevis tadpoles,None @ 10
same,melting point,,228 to 229 °C
"CC(=O)C1=CCCC23CCC4C(CCC5CC(O)CCC54C)C2CCC13 (stereo not drawn) [Compound 83, (3α,5α)-1-[3-Hydroxy-13,24-cyclo-18,21-dinorchol-20(22)-en-20-yl]ethanone]",IC50,[1],3190 nM
same,"Oocyte electrophysiology, ratio of currents in presence/absence of compound, 0.1 μM",[2],0.89 ± 0.02
same,"Oocyte electrophysiology, ratio of currents in presence/absence of compound, 1 μM",[2],0.86 ± 0.04
same,"Oocyte electrophysiology, ratio of currents in presence/absence of compound, 10 μM",[2],1.15 ± 0.04
same,"Gating (10 μM), ratio of compound only current/2 μM GABA current",[2],0.00 ± 0.00
same,LRR ED50 (loss of righting response),Xenopus laevis tadpoles,7200 ± 6620 nM
same,LSR EC50 (loss of swimming response),Xenopus laevis tadpoles,None @ 10
same,melting point,,198 to 200 °C
"CC12CCC(O)CC1CCC1C2CCC23CCC(=O)C2CCC13 (stereo not drawn) [Compound 89, (3α,5α)-3-Hydroxy-18,21-cyclopregnan-20-one]",IC50,[1],204 ± 36 nM
same,"Oocyte electrophysiology, ratio of currents in presence/absence of compound, 0.1 μM",[2],0.81 ± 0.02
same,"Oocyte electrophysiology, ratio of currents in presence/absence of compound, 1 μM",[2],1.02 ± 0.07
same,"Oocyte electrophysiology, ratio of currents in presence/absence of compound, 10 μM",[2],4.54 ± 0.64
same,"Gating (10 μM), ratio of compound only current/2 μM GABA current",[2],0.01 ± 0.00
same,LRR ED50 (loss of righting response),Xenopus laevis tadpoles,2630 ± 70 nM
same,EC50,Xenopus laevis tadpoles,5480 ± 150 nM
same,melting point,,176 to 178.5 °C
"CC12CCC(O)CC1CCC1C2CCC23C=CC(=O)C2CCC13 (stereo not drawn) [Compound 94, (3α,5α)-3-Hydroxy-18,21-cyclopregn-18(21)-en-20-one]",IC50,[1],745 ± 75 nM
same,"Oocyte electrophysiology, ratio of currents in presence/absence of compound, 0.1 μM",[2],0.96 ± 0.02
same,"Oocyte electrophysiology, ratio of currents in presence/absence of compound, 1 μM",[2],1.41 ± 0.09
same,"Oocyte electrophysiology, ratio of currents in presence/absence of compound, 10 μM",[2],2.78 ± 0.13
same,"Gating (10 μM), ratio of compound only current/2 μM GABA current",[2],−0.04 ± 0.02
same,LRR ED50 (loss of righting response),Xenopus laevis tadpoles,3370 ± 160 nM
same,EC50,Xenopus laevis tadpoles,9520 nM
same,melting point,,139 to 141 °C
"CC12CCC(O)CC1CCC1C2CCC23C=C(Br)C(=O)C2CCC13 (stereo not drawn) [Compound 95, (3α,5α)-21-bromo-3-hydroxy-18,21-cyclopregn-18(21)-en-20-one]",IC50,[1],94 ± 17 nM
same,"Oocyte electrophysiology, ratio of currents in presence/absence of compound, 0.1 μM",[2],1.25 ± 0.08
same,"Oocyte electrophysiology, ratio of currents in presence/absence of compound, 1 μM",[2],1.99 ± 0.20
same,"Oocyte electrophysiology, ratio of currents in presence/absence of compound, 10 μM",[2],8.75 ± 1.92
same,"Gating (10 μM), ratio of compound only current/2 μM GABA current",[2],0.02 ± 0.02
same,LRR ED50 (loss of righting response),Xenopus laevis tadpoles,290 ± 40 nM
same,EC50,Xenopus laevis tadpoles,550 ± 90 nM
same,melting point,,220 to 222.5 °C
"CC12CCC(O)CC1CCC1C2CCC23CCC(=CC#N)C2CCC13 (stereo not drawn) [Compound 96, (3α,5α,20E)-3-Hydroxy-18,21-cyclopregnan-20-ylideneacetonitrile]",IC50,[1],168 ± 32 nM
same,"Oocyte electrophysiology, ratio of currents in presence/absence of compound, 0.1 μM",[2],1.40 ± 0.21
same,"Oocyte electrophysiology, ratio of currents in presence/absence of compound, 1 μM",[2],2.33 ± 0.30
same,"Oocyte electrophysiology, ratio of currents in presence/absence of compound, 10 μM",[2],2.90 ± 0.29
same,"Gating (10 μM), ratio of compound only current/2 μM GABA current",[2],0.03 ± 0.03
same,LRR ED50 (loss of righting response),Xenopus laevis tadpoles,2770 ± 1160 nM
same,LSR EC50 (loss of swimming response),Xenopus laevis tadpoles,None @ 10
same,melting point,,201 to 202.5 °C
"CC12CCC(O)CC1CCC1C2CCC23CCC(=CC#N)C2CCC13 (stereo not drawn) [Compound 97, (3α,5α,20Z)-3-Hydroxy-18,21-cyclopregnan-20-ylideneacetonitrile]",IC50,[1],17200 nM
same,"Oocyte electrophysiology, ratio of currents in presence/absence of compound, 0.1 μM",[2],0.88 ± 0.07
same,"Oocyte electrophysiology, ratio of currents in presence/absence of compound, 1 μM",[2],0.87 ± 0.15
same,"Oocyte electrophysiology, ratio of currents in presence/absence of compound, 10 μM",[2],1.10 ± 0.08
same,"Gating (10 μM), ratio of compound only current/2 μM GABA current",[2],−0.02 ± 0.06
same,LRR ED50 (loss of righting response),Xenopus laevis tadpoles,>10000 nM
same,LSR EC50 (loss of swimming response),Xenopus laevis tadpoles,None @ 10
same,melting point,,226 to 228 °C
